From US20140356383A1, “ADMINISTRATION OF AN ANTI-GCC ANTIBODY-DRUG CONJUGATE AND A DNA DAMAGING AGENT IN THE TREATMENT OF CANCER” (priority 2013, published 2014)
Values joined by “and” are separate entries in the source; they are usually repeats but may differ in a detail not shown here. Equal entries are not always repeated.

Tests used:
[1] = system: PHTX-215 Pa primary human pancreatic tumor xenograft; test: Single-agent 5F9 vcMMAE in PHTX-215 Pa pancreatic xenograft; type: in vivo, mice
From the text: (§1) The purpose of this study was to evaluate in vivo anti-tumor activity induced by combined administration of the 5F9 vcMMAE immunoconjugate (sometimes referred to herein as “MLN0264”) and gemcitabine in mouse xenograft primary human tumor explants (PHTX models of pancreatic cancer. These models included tumor tissue from patients with wild-type and mutant KRAS. Five pancreatic PHTX were generated by Champions Oncology (Hackensack, N.J.) using their CTG platform. 2 PHTX models were developed in-house. GCC expression was evaluated in each of the 7 PHTX models using the automated IHC assay described above.
(§2) In vivo anti-tumor studies of single-agent 5F9 vcMMAE immunoconjugate was conducted in all seven of the pancreatic subcutanreous xenograft mouse models. Animals were administered vehicle, free MMAE at 0.135 mg/kg once weekly (QW), a non-GCC targeting ADC at 7.5 mg/kg QW, or 5F9 vcMMAE at 3.75 or 7.5 mg/kg QW. The results for single agent activity of the immunoconjugate in PHTX-215 Pa and PHTX-249 Pa models is shown in FIGS. 15A and 15B, respectively.

HT29 (WT / vector) cells = test: Direct cytotoxicity assay (WST), HT29 wild-type / vector cells; type: cell-based, human
Description: To measure each antibody's ability to bind, internalize and kill target expressing cells, cytotoxicity assays were performed. In this assay, cells were incubated with various concentrations of the unconjugated primary anti-GCC antibody and a fixed non-toxic concentration of DM1-conjugated anti-human Fc secondary antibody (indirect cytotoxicity) or with various concentrations of toxin conjugated anti-GCC mAb (direct cytotoxicity). Cell viability was measured by WST assay after 4 days incubation.
Auristatin (analog of dolastatin 10) and maytansine class toxins were evaluated as ADCs with anti-GCC mAb. These toxins are all inhibitors of microtubule polymerization, acting as anti-mitotics.
The 5F9-auristatin toxin conjugates were tested in direct cytotoxicity assays of a variety of cells which been transfected with GCC nucleic acid and selected for expression of GCC. […] As a negative control, antibody drug conjugates were also made with sc209 antibody, which is a human IgG1 monoclonal antibody raised against an unrelated target, with no reactivity to GCC.

[2] = system: PHTX-11c primary human mCRC tumor xenograft; test: 5F9 vcMMAE single agent efficacy in PHTX-11c; type: in vivo, SCID mice
[3] = system: PHTX-249 Pa primary human pancreatic tumor xenograft; test: Single-agent 5F9 vcMMAE in PHTX-249 Pa pancreatic xenograft; type: in vivo, mice
From the text: as §1, §2

[4] = system: 293 GCC#2 tumor xenograft; test: 5F9 vcMMAE single agent efficacy in 293 GCC#2 xenograft (Example 5); type: in vivo, SCID mice; conditions: dose 1.875-7.5 mg/kg, QW, T/C=volume of tumor/control
PHTX-17c s.c. xenograft = test: MLN0264 and CPT-11 in PHTX-17C s.c. xenografts (Study CPGC-11-EF06); type: in vivo, CB-17 SCID mice
Description: (§3) Tumor volume was calculated using the formula: […]

[5] = system: PHTX-21c primary human mCRC tumor xenograft; test: 5F9 vcMMAE single agent efficacy in PHTX-21c; type: in vivo, SCID mice; conditions: for anti-tumor activity maintained post-dosing: last dose on day 22
293 GCC#2 tumors = test: Efficacy study with auristatin conjugates in 293 GCC#2 tumors, q7d×4; type: in vivo, SCID mice; conditions: for T/C: treatment/control
Description: 293 GCC#2 tumor-bearing SCID mice were treated with 5F9 conjugates with vc MMAE, vcMMAF or mcMMAF at three doses in comparison with 209 conjugates of these toxins or with free toxins or vehicle control. Doses were administered iv on a q7d×4 schedule. Tumors were harvested at days 3, 7, 10, 13 and 17. […] Table 18 provides a summary of the results (TGI=tumor growth inhibition, T/C=treatment/control, TGD=tumor growth delay, CR/PR=complete response/partial response; p value=measure to judge statistical significance, NS=not significant).

[6] = system: PHTX-249 Pa s.c. xenograft; test: 5F9 vcMMAE and gemcitabine in PHTX-249 Pa s.c. xenografts (Study CPGC-13-EF05); type: in vivo, CB-17 SCID mice; conditions: group A: MLN0264 7.5 mg/kg QW; reference vehicle
Description: Day D0 was the first day of treatment.
as §3
A negative dAUC is interpreted as an increase in AUC relative to the reference. It is important to evaluate not only the P value, but also the dAUC. Comparisons with significant P values, but small dAUC values, may not be of interest.

PHTX-21c s.c. xenograft [7] = test: MLN0264 and CPT-11 in PHTX-21C s.c. xenografts (Study CPGC-11-EF04)
Description: (§4) The endpoints for each treatment group was either a) tumor volume reaches 10% body weight; or b) body weight loss of >20%. The projected tumor volume at the study initiation date was 200 mm^3.
(§5) Not greater than one day prior to dosing, all animals were weighed to the nearest gram and grouped. Dosing solutions were vortexed prior to each administration to ensure correct delivery of compound. Animals received approximately 0.1 ml doses administered I.V. using a 1 cc syringe, 27-30 gauge, ½-¾ inch in length.
(§6) Tumor volume measurements were obtained twice per week using Vernier calipers (0.01 mm). Tumor volume was calculated using the formula:
(§7) Efficacy was evaluated in terms of % tumor growth inhibition (TGI) and tumor growth delay (TGD). TGI was assessed on an arbitrary day (when the maximum tumor volume (MTV of the control treatment group reaches the maximum allowable tumor volume), using the following formula:
TGD was assessed by calculating T−C, where T=mean time (in days) for treatment group tumors to reach a predetermined size (e.g., 1,000 mm^3), and where C=mean time (in days) for the control group tumors to reach a predetermined size.
(§8) To compare pairs of treatment groups, the following mixed-effects linear regression model was fit to the data using the maximum likelihood method:
(§9) The predicted differences in the log tumor values (Yijk−Yi0k, which can be interpreted as log10 (fold change from day 0)) were taken from the above models to calculate mean AUC values for each treatment group. A dAUC value was then calculated as:
For synergy analyses, the observed differences in the log tumor values were used to calculate AUC values for each animal. […] The AUC for the control, or vehicle, group was calculated using the predicted values from the pairwise models described above.

PHTX-09c s.c. xenograft = test: 5F9 vcMMAE and cisplatin in PHTX-09c s.c. xenografts (Study CPGC-11-EF05); conditions: reference vehicle
Description: as §4, §5, §6
Efficacy was evaluated in terms of % tumor growth inhibition (TGI) and tumor growth delay (TGD); the difference in days for treated vs. control tumors to reach final study volume).
TGI was assessed on an arbitrary day (when the maximum tumor volume (“MTV” of the control treatment group reaches the maximum allowable tumor volume), using the following formula:
(§10) TGD was assessed by calculating T−C, where T=mean time (in days) for treatment group tumors to reach a predetermined size, and where C=mean time (in days) for the control group tumors to reach a predetermined size (e.g., 1,000 mm^3).
as §9
For synergy analyses, the observed differences in the log tumor values were used to calculate AUC values for each animal. […] The AUC for the control, or vehicle, group was calculated using the predicted values from the pairwise models described above. A measure of synergy was defined as follows:
where Ak and Bk are the k^th animal in the individual treatment groups and ABk is the k^th animal in combination treatment group. AUCctl is the model-predicted AUC for the control group and was treated as a constant with no variability. The standard error of the synergy score was calculated as the square root of the sum of squared standard errors across groups A, B, and AB. The degrees of freedom were estimated using the Welch-Satterthwaite equation. A hypothesis test was performed to determine if the synergy score differed from 0. P values were calculated by dividing the synergy score by its standard error and tested against a t-distribution (two-tailed) with the above-calculated degrees of freedom.
The effect was classified into four different categories. It was considered synergistic if the synergy score was less than 0, and additive if the synergy score wasn't statistically different from 0.

PHTX-11c s.c. xenograft = test: MLN0264 and CPT-11 in PHTX-11c s.c. xenografts (Study CPGC-12-EF01)
From the text: The objective of this study was to explore the combination activity in a model having moderate level of GCC antigen density yet resistance to the immunoconjugate alone.
as §4
Not greater than one day prior to dosing, all animals were weighed to the nearest gram and grouped. Dosing solutions were vortexed prior to each administration to ensure correct delivery of compound. Animals received approximately 0.1 ml doses administered I.V. using a 1 cc syringe, 25-30 gauge, ½-¾ inch in length.
Tumor volume measurements (0.01 mm) were obtained twice per week using Vernier calipers (0.01 mm). Tumor volume was calculated using the formula:
as §7, §10, §8, §9
For synergy analyses, the observed differences in the log tumor values were used to calculate AUC values for each animal. […] The AUC for the control, or vehicle, group was calculated using the predicted values from the pairwise models described above. To address the question of whether the effects of the combination treatments were synergistic, additive, or sub-additive relative to the individual treatments, the following statistics were calculated:
where Ak and Bk are the k^th animal in the individual treatment groups and ABk is the k^th animal in combination treatment group. AUCctl is the model-predicted AUC for the control group and was treated as a constant with no variability. The standard error of the synergy score was calculated as the square root of the sum of squared standard errors across groups A, B, and AB. The degrees of freedom were estimated using the Welch-Satterthwaite equation. P values were calculated by dividing the synergy score by its standard error and tested against a t-distribution (two-tailed) with the above-calculated degrees of freedom.
The effect was classified into four different categories. It was considered synergistic if the synergy score was less than 0 and additive if the synergy score wasn't statistically different from 0. […] Interval analysis, if requested, involved a specified treatment group and time interval compared with another treatment group and time interval. For a given group, time interval, and animal, the tumor growth rate per day was estimated by

PHTX-21c s.c. xenograft [8] = test: MLN0264 and 5-Fluorouracil in PHTX-21C s.c. xenografts (Study CPGC-11-EF01); type: in vivo, CB-17 SCID mice; conditions: for dAUC: reference vehicle
Description: as §3

[9] = group A: MLN0264 7.5 mg/kg QW, reference vehicle
[10] = PHTX-21c, ML0264 3.75 mg/kg i.v. QW
[11] = MLN0264 7.5 mg/kg QW i.v., W1-W3

In the case of “5F9 vcMMAE: 5F9 mAb conjugated to MMAE using a vc (Val-Cit) linker; average drug loading about 3.6”, the “tumor regressions (animals)” value ([1]; PHTX-215 Pa (KRAS wt), 7.5 mg/kg QW) was 3 out of 8, the “tumor growth inhibition” value ([1]; PHTX-215 Pa, 7.5 mg/kg QW, by day 22) was “significantly great tumor growth inhibition (TGI) versus free MMAE” and the “TGI, %” value ([1]; single agent, model PHTX-215, KRAS wild-type, QWx3, day 21) was 79%. The “LD 50” value (HT29 (WT / vector) cells; HT29, auristatin ADCs) was 0.93 nM, the “LD 50” value (HT29 (WT / vector) cells; HT 29 WT, auristatin ADCs) was 84 nM and the single agent sensitivity ([2]; 1.875-7.5 mg/kg I.V. QW×3 weeks) was “relatively resistant”. For the same substance, the T/C ([2]; dose 1.875-7.5 mg/kg, on BIW) was 0.5 on, the “tumor growth inhibition” value ([3]; PHTX-249 Pa, by day 21) was “significant TGI versus vehicle or free MMAE” and the “TGI, %” value ([3]; model PHTX-249, KRAS Mut G12D, QWx3, day 21) was 47%. The T/C [4] was 0.03, the “Days to 1000 mm^3” value (PHTX-17c s.c. xenograft; PHTX-17c, ML0264 7.5 mg/kg QW) was >17 days and the “Mean tumor volume ± S.E.M (mm3)” value (PHTX-17c s.c. xenograft; PHTX-17c, ML0264 7.5 mg/kg QW) was 886.1 ± 187.9 mm3. For the same substance, the T/C (PHTX-17c s.c. xenograft; PHTX-17c, ML0264 7.5 mg/kg QW) was 0.49, the TGI (PHTX-17c s.c. xenograft; PHTX-17c, ML0264 7.5 mg/kg QW) was 51% and the dAUC (PHTX-17c s.c. xenograft; [9]) was 28.9%. The “anti-tumor activity maintained post-dosing” value ([5]; 7.5 mg/kg) was 7-8 weeks, the “anti-tumor activity maintained post-dosing” value ([5]; 10 mg/kg) was > 15 weeks and the “single agent anti-tumor activity” value ([5]; 3.75-10 mg/kg I.V. QW×4) was “Moderate to strong in vivo anti-tumor activity”. For the same substance, the T/C ([5]; dose 3.75-10 mg/kg, QW, T/C=volume of tumor/control) was 0.23, the TGI (293 GCC#2 tumors; 75 μg/kg iv q7d×4) was 54.5 and the T/C (293 GCC#2 tumors; 75 μg/kg iv q7d×4) was 0.45. For the same substance, the TGD (293 GCC#2 tumors; 75 μg/kg iv q7d×4, tumor growth delay) was 4.4, the TGI (293 GCC#2 tumors; 150 μg/kg iv q7d×4) was 83.5 and the T/C (293 GCC#2 tumors; 150 μg/kg iv q7d×4) was 0.17. It also gave a TGI (293 GCC#2 tumors; 300 μg/kg iv q7d×4) of 96.9, a T/C (293 GCC#2 tumors; 300 μg/kg iv q7d×4) of 0.03 and a dAUC [6] of 26.4%. For the same substance, the “single agent anti-tumor activity” value (PHTX-21c s.c. xenograft [7]; PHTX-21c, 3.75 mg/kg) was “relatively low anti-tumor activity”, the “Days to 1000 mm^3” value (PHTX-21c s.c. xenograft [7]; [10]) was >15 days and the “Mean tumor volume ± S.E.M (mm3)” value (PHTX-21c s.c. xenograft [7]; [10]) was 869.1 ± 105.2 mm3. For the same substance, the T/C (PHTX-21c s.c. xenograft [7]; [10]) was 0.64, the TGI (PHTX-21c s.c. xenograft [7]; [10]) was 36.3% and the dAUC (PHTX-21c s.c. xenograft [7]; Treated group A (ML0264 3.75 mg/kg) vs reference V (vehicle)) was 25.1%. For the same substance, the dAUC (PHTX-09c s.c. xenograft; group A: MLN0264 1.875 mg/kg IV QW x3) was 17.8%, the dAUC (PHTX-09c s.c. xenograft; group B: MLN0264 3.75 mg/kg IV QW x3, 3.75 mg/kg) was 28.4% and 44.8% and the “Days to 1000 mm^3” value (PHTX-11c s.c. xenograft; [11]) was 13.5 days. For the same substance, the “Mean tumor volume ± S.E.M” value (PHTX-11c s.c. xenograft; [11]) was 1263.4 ± 115.8 mm3, the T/C (PHTX-11c s.c. xenograft; [11]) was 0.62 and the TGD (PHTX-11c s.c. xenograft; [11]) was 4.7 days. For the same substance, the TGI (PHTX-11c s.c. xenograft; [11]) was 37.7%, the “single agent anti-tumor activity” value (PHTX-11c s.c. xenograft; PHTX-11c, 7.5 mg/kg) was “very low activity” and the dAUC (PHTX-11c s.c. xenograft; [9]) was 22.6%. For the same substance, the “single agent anti-tumor activity” value (PHTX-21c s.c. xenograft [8]; PHTX-21c, 3.75 mg/kg) was “relatively low anti-tumor activity”, the dAUC (PHTX-21c s.c. xenograft [8]; group C: MLN0264 3.75 mg/kg QW) was 38.5% and the dAUC (PHTX-21c s.c. xenograft [8]; group D: MLN0264 7.5 mg/kg QW) was 74.0%.
